According to ChEMBL document CHEMBL4364276, “Discovery of 4-phenyl-2H-benzo[b][1,4]oxazin-3(4H)-one derivatives as potent and orally active PI3K/mTOR dual inhibitors” (Eur J Med Chem, 2019):

Tests used:
[1] = target: Receptor-interacting serine/threonine-protein kinase 3 (Homo sapiens) (UniProt Q9Y572); test: Inhibition of human RIPK3 at 100 nM using MBP as substrate by [gamma-33P]-ATP assay
[2] = target: Dual specificity mitogen-activated protein kinase kinase 1 (Homo sapiens) (UniProt Q02750); test: Inhibition of human MEK1 at 100 nM using ERK2 as substrate by [gamma-33P]-ATP assay
[3] = tested on: A549; test: Antitumor activity against human A549 cells xenografted in BALB/c nude mouse assessed as tumor growth inhibition at 20 mg/kg, ig administered for 30 days measured every 3 days during compound dosing relative to control; type: functional; settings: A549, po, read-out: TGI
[4] = target: Mitogen-activated protein kinase kinase kinase 9 (Homo sapiens) (UniProt P80192); test: Inhibition of human MLK1 at 100 nM using casein as substrate by [gamma-33P]-ATP assay
[5] = tested on: HeLa; test: Antitumor activity against human HeLa cells xenografted in BALB/c nude mouse assessed as tumor growth inhibition at 20 mg/kg, ig administered for 30 days measured every 3 days during compound dosing relative to control; type: functional; settings: po, read-out: TGI
[6] = target: Serine/threonine-protein kinase haspin (Homo sapiens) (UniProt Q8TF76); test: Inhibition of human haspin at 100 nM using Histone H3 as substrate by [gamma-33P]-ATP assay
[7] = target: Wee1-like protein kinase (Homo sapiens) (UniProt P30291); test: Inhibition of human WEE1 at 100 nM using MBP as substrate by [gamma-33P]-ATP assay
[8] = tested on: HeLa; test: Antiproliferative activity against human HeLa cells assessed as reduction in cell viability incubated for 72 hrs by MTT assay; type: functional, cell-based
[9] = target: Mitogen-activated protein kinase 1 (Homo sapiens) (UniProt P28482); test: Inhibition of human ERK2 at 100 nM using MBP as substrate by [gamma-33P]-ATP assay
[10] = target: Dual specificity tyrosine-phosphorylation-regulated kinase 1A (Homo sapiens) (UniProt Q13627); test: Inhibition of human DYRK1A at 100 nM using RRRFRPASPLRGPPK as substrate by [gamma-33P]-ATP assay
[11] = target: Serine/threonine-protein kinase PLK3 (Homo sapiens) (UniProt Q9H4B4); test: Inhibition of human PLK3 at 100 nM using casein as substrate by [gamma-33P]-ATP assay
[12] = target: Ephrin type-A receptor 8 (Homo sapiens) (UniProt P29322); test: Inhibition of human EPHA8 at 100 nM using poly[Glu:Tyr] (4:1) as substrate by [gamma-33P]-ATP assay
[13] = target: Glycogen synthase kinase-3 alpha (Homo sapiens) (UniProt P49840); test: Inhibition of human GSK3A at 100 nM using YRRAAVPPSPSLSRHSSPHQ(pS)EDEEE as substrate by [gamma-33P]-ATP assay
[14] = target: Tyrosine-protein kinase Lyn (Homo sapiens) (UniProt P07948); test: Inhibition of human LYN at 100 nM using poly[Glu:Tyr] (4:1) as substrate by [gamma-33P]-ATP assay
[15] = target: CDK4/Cyclin D3 (Homo sapiens) (UniProt P11802+P30281); test: Inhibition of human CDK4/cyclin-D3 at 100 nM using RB-CTF as substrate by [gamma-33P]-ATP assay; type: protein-complex assay
[16] = target: Ephrin type-A receptor 1 (Homo sapiens) (UniProt P21709); test: Inhibition of human EPHA1 at 100 nM using poly[Glu:Tyr] (4:1) as substrate by [gamma-33P]-ATP assay
[17] = target: Testis-specific serine/threonine-protein kinase 6 (Homo sapiens) (UniProt Q9BXA6); test: Inhibition of human SSTK at 100 nM using MBP as substrate by [gamma-33P]-ATP assay
[18] = target: Serine/threonine-protein kinase PAK 1 (Homo sapiens) (UniProt Q13153); test: Inhibition of human PAK1 at 100 nM using RRRLSFAEPG as substrate by [gamma-33P]-ATP assay
[19] = target: Testis-specific serine/threonine-protein kinase 3 (Homo sapiens) (UniProt Q96PN8); test: Inhibition of human TSSK3 at 100 nM using KKKVSRSGLYRSPSMPENLNRPR as substrate by [gamma-33P]-ATP assay
[20] = Inhibition of PI3K/Akt/mTOR signaling in human HeLa cells assessed as reduction in AKT 473 phosphorylation incubated for 24 hrs by Western blot analysis; type: cell-based
[21] = Oral bioavailability in Sprague-Dawley rat at 10 mg/kg measured upto 24 hrs by LC-MS/MS analysis; type: ADME, organism-based; settings: in vivo
[22] = target: Tyrosine-protein kinase Fyn (Homo sapiens) (UniProt P06241); test: Inhibition of human FYN at 100 nM using poly[Glu:Tyr] (4:1) as substrate by [gamma-33P]-ATP assay
[23] = target: Proto-oncogene tyrosine-protein kinase Src (Homo sapiens) (UniProt P12931); test: Inhibition of human c-SRC at 100 nM using poly[Glu:Tyr] (4:1) as substrate by [gamma-33P]-ATP assay
[24] = species on record: Homo sapiens; test: Inhibition of human AMPK (A2/B2/G2) at 100 nM using HMRSAMSGLHLVKRR as substrate by [gamma-33P]-ATP assay
[25] = target: Serine/threonine-protein kinase PAK 5 (Homo sapiens) (UniProt Q9P286); test: Inhibition of human PAK5 at 100 nM using RRRLSFAEPG as substrate by [gamma-33P]-ATP assay
[26] = target: Phosphatidylinositol 4,5-bisphosphate 3-kinase catalytic subunit gamma isoform (Homo sapiens, UniProt P48736); test: Inhibition of recombinant human full length N-terminal DYKDDDDK-tagged PI3Kgamma (1 to 1102 residues) expressed in baculovirus expression system using PIP2 as substrate incubated for 2 hrs by ADP-Glo assay
[27] = target: RAC-beta serine/threonine-protein kinase (Homo sapiens) (UniProt P31751); test: Inhibition of human AKT2 at 100 nM using KGSGSGRPRTSSFAEG as substrate by [gamma-33P]-ATP assay
[28] = target: Serine/threonine-protein kinase WNK2 (Homo sapiens) (UniProt Q9Y3S1); test: Inhibition of human WNK2 at 100 nM using MBP as substrate by [gamma-33P]-ATP assay
[29] = target: Phosphatidylinositol 4,5-bisphosphate 3-kinase catalytic subunit alpha isoform (Homo sapiens, UniProt P42336); test: Inhibition of recombinant human full length N-terminal GST-tagged PI3Kalpha (1 to 1068 residues)/PIK3R1 (1 to 724 residues) expressed in baculovirus expression system using PIP2 as substrate incubated for 1 hr by ADP-Glo assay
[30] = target: Ephrin type-A receptor 5 (Homo sapiens) (UniProt P54756); test: Inhibition of human EPHA5 at 100 nM using poly[Glu:Tyr] (4:1) as substrate by [gamma-33P]-ATP assay

Receptor-interacting serine/threonine-protein kinase 3 (Homo sapiens), sequence (Q9Y572 whole entry, looked up): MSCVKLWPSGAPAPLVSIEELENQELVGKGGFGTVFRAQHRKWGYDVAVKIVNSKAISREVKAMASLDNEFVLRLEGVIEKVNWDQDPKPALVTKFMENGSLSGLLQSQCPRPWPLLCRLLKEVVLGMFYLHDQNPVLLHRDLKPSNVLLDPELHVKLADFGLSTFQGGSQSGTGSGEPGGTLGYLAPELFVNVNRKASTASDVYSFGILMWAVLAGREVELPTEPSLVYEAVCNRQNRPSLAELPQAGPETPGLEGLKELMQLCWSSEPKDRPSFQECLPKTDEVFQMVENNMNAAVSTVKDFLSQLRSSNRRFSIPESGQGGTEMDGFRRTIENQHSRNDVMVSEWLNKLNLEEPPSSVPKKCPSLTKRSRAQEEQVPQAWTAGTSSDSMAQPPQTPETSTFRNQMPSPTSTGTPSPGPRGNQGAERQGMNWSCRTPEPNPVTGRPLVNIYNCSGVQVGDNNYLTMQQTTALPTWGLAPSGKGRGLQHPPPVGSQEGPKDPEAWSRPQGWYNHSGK
Ephrin type-A receptor 1 (Homo sapiens), sequence (P21709 whole entry): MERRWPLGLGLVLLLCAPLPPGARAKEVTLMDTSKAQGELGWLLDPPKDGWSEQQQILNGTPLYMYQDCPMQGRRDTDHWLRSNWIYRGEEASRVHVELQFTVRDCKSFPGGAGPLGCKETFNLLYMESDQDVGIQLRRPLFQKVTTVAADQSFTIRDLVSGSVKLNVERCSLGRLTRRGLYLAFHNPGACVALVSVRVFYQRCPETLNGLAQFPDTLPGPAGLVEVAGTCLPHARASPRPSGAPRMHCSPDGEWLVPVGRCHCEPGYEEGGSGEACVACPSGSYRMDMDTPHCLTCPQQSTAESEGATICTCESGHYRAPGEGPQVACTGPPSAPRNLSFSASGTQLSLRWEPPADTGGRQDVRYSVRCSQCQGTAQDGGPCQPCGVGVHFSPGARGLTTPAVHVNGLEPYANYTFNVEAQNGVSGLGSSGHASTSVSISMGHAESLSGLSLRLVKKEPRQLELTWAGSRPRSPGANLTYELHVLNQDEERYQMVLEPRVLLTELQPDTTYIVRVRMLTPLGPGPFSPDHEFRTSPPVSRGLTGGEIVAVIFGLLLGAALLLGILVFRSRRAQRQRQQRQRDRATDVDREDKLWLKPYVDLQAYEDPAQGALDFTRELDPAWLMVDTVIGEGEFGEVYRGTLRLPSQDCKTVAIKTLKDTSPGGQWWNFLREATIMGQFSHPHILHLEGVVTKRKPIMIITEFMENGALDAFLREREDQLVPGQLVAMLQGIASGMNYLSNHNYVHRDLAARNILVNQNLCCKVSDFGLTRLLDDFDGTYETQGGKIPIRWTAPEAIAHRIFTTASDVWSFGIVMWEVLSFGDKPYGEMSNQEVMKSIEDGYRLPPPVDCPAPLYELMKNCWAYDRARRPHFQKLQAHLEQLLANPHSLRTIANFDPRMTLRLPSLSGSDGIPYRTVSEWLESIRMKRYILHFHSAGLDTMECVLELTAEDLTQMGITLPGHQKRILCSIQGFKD
Serine/threonine-protein kinase WNK2 (Homo sapiens), sequence (Q9Y3S1 whole entry, the tested form may be a part, canonical isoform): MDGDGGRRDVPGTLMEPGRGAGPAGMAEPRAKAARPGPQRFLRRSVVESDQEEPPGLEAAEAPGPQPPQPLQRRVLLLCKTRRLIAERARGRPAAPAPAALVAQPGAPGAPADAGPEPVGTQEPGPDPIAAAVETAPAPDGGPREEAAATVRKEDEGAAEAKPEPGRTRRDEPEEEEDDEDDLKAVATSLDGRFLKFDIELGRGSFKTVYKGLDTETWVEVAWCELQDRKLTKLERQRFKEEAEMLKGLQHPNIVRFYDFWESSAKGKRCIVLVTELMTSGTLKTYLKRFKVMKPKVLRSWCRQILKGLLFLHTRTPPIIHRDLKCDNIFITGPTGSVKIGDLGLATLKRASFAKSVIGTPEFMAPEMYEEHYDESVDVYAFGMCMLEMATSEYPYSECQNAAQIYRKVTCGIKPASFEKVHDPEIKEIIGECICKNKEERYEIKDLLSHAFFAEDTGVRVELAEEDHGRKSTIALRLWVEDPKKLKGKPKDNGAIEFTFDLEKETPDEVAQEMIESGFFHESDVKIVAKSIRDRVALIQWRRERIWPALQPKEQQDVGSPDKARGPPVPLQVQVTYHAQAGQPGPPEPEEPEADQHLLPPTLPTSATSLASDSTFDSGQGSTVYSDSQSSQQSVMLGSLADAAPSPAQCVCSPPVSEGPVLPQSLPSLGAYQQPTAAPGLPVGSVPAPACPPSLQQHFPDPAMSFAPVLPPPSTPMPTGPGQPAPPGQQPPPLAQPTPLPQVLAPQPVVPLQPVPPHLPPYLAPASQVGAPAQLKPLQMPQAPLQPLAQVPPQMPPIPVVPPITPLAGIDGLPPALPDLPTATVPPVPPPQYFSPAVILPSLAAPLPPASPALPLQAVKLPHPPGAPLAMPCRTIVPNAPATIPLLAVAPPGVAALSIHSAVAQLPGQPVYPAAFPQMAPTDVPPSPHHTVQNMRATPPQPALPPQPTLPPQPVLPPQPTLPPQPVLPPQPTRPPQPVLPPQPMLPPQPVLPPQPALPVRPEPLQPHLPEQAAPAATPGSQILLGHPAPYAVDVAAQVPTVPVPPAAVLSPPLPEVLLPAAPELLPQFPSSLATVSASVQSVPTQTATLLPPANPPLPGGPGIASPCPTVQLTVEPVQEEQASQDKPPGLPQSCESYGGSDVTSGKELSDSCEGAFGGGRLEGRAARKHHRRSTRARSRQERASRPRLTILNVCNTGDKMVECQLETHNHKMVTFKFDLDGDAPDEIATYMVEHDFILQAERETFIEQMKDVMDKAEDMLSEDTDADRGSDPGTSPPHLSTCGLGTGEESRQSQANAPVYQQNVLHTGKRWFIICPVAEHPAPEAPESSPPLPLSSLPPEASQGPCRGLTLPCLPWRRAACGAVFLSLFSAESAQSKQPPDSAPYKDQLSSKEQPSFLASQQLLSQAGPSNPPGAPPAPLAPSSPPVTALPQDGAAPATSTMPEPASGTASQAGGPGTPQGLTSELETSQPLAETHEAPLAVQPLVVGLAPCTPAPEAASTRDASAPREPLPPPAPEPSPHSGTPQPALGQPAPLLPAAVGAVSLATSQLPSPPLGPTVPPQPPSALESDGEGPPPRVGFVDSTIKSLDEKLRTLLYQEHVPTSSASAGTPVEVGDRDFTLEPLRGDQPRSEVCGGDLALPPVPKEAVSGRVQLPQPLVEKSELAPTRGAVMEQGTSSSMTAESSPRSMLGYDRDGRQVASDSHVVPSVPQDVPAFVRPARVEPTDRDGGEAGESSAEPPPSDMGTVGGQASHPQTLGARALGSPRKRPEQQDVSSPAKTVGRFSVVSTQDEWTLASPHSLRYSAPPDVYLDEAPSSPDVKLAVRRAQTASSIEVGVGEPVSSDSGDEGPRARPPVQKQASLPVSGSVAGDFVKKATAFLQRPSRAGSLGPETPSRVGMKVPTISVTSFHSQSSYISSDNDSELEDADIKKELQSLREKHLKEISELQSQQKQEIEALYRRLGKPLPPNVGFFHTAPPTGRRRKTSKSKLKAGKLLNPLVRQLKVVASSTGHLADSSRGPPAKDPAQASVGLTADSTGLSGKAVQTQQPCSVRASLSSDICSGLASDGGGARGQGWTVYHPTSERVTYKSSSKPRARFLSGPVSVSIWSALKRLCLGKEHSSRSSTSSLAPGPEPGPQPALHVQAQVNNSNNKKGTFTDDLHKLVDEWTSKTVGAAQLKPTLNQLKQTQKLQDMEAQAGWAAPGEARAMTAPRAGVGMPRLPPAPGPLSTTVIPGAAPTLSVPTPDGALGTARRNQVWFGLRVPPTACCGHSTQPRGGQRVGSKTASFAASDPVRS
Proto-oncogene tyrosine-protein kinase Src (Homo sapiens), sequence (P12931 2-536 limits assumed): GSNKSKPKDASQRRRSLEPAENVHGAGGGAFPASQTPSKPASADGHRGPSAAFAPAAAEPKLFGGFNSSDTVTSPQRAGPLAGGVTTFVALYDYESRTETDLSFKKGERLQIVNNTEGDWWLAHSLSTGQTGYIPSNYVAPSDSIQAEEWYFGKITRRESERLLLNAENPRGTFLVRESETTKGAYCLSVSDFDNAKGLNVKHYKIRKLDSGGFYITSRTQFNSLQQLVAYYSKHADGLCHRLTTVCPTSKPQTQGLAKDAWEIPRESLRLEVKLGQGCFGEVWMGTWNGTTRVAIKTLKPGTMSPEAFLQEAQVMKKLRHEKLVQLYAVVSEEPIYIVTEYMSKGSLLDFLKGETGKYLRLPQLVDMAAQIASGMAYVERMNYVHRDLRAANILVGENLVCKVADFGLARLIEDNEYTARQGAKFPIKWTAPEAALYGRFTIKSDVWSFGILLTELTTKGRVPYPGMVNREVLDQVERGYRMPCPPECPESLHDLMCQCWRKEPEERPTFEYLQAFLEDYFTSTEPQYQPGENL
Serine/threonine-protein kinase PLK3 (Homo sapiens), sequence (Q9H4B4 whole entry, looked up): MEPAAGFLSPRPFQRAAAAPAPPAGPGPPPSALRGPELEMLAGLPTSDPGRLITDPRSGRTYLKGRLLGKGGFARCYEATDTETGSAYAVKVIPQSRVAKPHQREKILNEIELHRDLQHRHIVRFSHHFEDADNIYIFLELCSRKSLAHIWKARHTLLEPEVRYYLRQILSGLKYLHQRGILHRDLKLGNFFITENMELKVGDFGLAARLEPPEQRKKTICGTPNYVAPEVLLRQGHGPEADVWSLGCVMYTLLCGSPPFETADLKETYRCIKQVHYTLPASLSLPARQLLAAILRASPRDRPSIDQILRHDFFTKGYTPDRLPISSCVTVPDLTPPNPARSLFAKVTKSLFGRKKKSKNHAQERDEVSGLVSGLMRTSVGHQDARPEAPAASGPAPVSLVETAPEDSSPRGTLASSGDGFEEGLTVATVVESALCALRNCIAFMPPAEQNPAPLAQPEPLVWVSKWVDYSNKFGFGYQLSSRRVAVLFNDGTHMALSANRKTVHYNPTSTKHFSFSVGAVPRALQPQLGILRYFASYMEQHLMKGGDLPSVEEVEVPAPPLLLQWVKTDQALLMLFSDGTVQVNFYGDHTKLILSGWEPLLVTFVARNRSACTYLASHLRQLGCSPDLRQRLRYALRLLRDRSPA

Molecule `COc1ccc(N2C(=O)COc3ccc(-c4cnc(OC)c(NS(=O)(=O)c5ccc(F)cc5)c4)cc32)cc1` has an inhibition [1] of -2.23%, an inhibition [2] of 1.42% and an inhibition in vivo at 20 mg/kg [3] of 57.8%. The inhibition [4] was 0.68%, the inhibition in vivo at 20 mg/kg [5] was 66.6% and the inhibition [6] was 12.1%. For the same molecule, the inhibition [7] was 6.18%, the IC50 [8] was 1220 nM and the inhibition [9] was 17.4%. The inhibition [10] was 5.57%, the inhibition [11] was -5.25% and the inhibition [12] was -2.71%. It also gave an inhibition [13] of -8.76%, an inhibition [14] of -1.62% and an inhibition [15] of -5.7%. For the same molecule, the inhibition [16] was 4.93%, the inhibition [17] was 2.2% and the inhibition [18] was 7.71%. For the same molecule, the inhibition [19] was -8.01%, the inhibition [20] was “Dose-dependent effect” and the bioavailability [21] was 24.1%. It also gave an inhibition [22] of -0.86%, an inhibition [23] of 6.76% and an inhibition [24] of -8.51%. The inhibition [25] was -1.26%, the IC50 [26] was 22 nM and the inhibition [27] was 28.1%. The inhibition [28] was 2.82%, the IC50 [29] was 0.63 nM and the inhibition [30] was 3.06%.
